Results on four compounds are retold here after patent publication US4448730A, “Hydroxybenzohydroxamic acids, benzamides and esters and related compounds as ribonucleotide reductase inhibitors” (priority 1982, dated 1984).

Data set [1] relates to DNA synthesis in Ehrlich ascites tumor cells. To be noted: Gale and Hynes 1968; in vitro; cited from earlier work.
In data set [2] the test system is RNA and protein synthesis in Ehrlich ascites tumor cells. To be noted: Gale and Hynes 1968; cited from earlier work.
Data set [3] deals with DNA, RNA and protein synthesis in cells. To be noted: cited from earlier work.
The subject of data set [4] is L-1210 Leukemia. As to the kind of experiment: Direct side-by-side comparison with L-1210 leukemia. The format is in vivo, mice. The source says:
In a direct side-by-side comparison with L-1210 leukemia, the following results were obtained.

Another data set relates to B16 melanoma. As to the kind of experiment: B16 melanoma, increase in survival. The format is in vivo, mice. The source says:
(§1) The same two compounds were effective in inhibiting the growth of the following transplanted tumors--B16 melanoma, M-1 human breast xenograft, LX-1 human lung xenograft, CD8F mammary tumor and colon 38 tumor--as follows: […]

Data set [5] relates to L-1210 Leukemia. The data set is classed as in vivo, mice. The text has this: The above data clearly show the enhanced anti-tumor activity of trihydroxybenzohydroxamic acid where the hydroxy groups are vicinal but no hydroxyl is ortho. Similar data are available for the vicinal dihydroxybenzohydroxamic acids with and without an ortho-hydroxy substituent in an L-1210 leukemic test in mice as follows: […]

The next data set has as its system L-5563 lymphoma. As to the kind of experiment: Activity vs. L-5563 lymphoma (Table 6). To be noted: 200 mg/kg; once or twice daily for 9-10 days.
For the next data set, the system named is L1210 leukemia. As to the kind of experiment: L1210 leukemia in mice, increase in life span (Table 2). The format is in vivo. The note with it: Mus musculus, L1210, 192 h; 600 mg/kg daily for 8 days; read-out: ILS, average percent (± standard error) increase in life span. The source says:
As stated above, the compounds represented by formula I above have the ability to inhibit ribonucleotide reductase, an enzyme involved in the reductive conversion of ribonucleotides to deoxyribonucleotides. This enzymatic reaction is a rate controlling step in the biosynthetic pathway leading to DNA and cell replication. In general, the ribonucleotide reductase level is closely correlated with cellular replication.
(§2) Table 2 gives ribonucleotide reductase data for certain compounds of formula I. In the table, column 1 gives the substitution pattern in the benzene ring, column 2, the R^1 group, column 3, the ID50 (inhibitory dose in micromolar concentration which inhibits ribonucleotide reductase by 50%), column 4, the average percent (± standard error) increase in the life span (ILS) of 8 treated mice inoculated with L1210 leukemia compared with 8 control mice also inoculated with L1210. The daily dose level of the drug which was administered for 8 days is indicated in column 5. Table 3 gives the relative potency of the compounds represented by formula I above as inhibitors of ribonucleotide reductase compared to hydroxyurea whose potency was given an arbitrary value of 1.0. In table 3, column 1 gives the name of the compound and column 2 the relative inhibitory potency of each of the compounds of column 1.

Another data set has as its system P388 Leukemia. As to the kind of experiment: Activity vs. P388 Leukemia (Table 8). The data set is classed as in vivo, mice. To be noted: once or twice daily for 9-10 days.
The subject of data set [6] is LX-1 human lung xenograft. As to the kind of experiment: Inhibition of growth of LX-1 human lung xenograft. The format is in vivo, mice.
Excerpt: as §1

For a further data set, the system named is CX-1 colon xenograft. Kind of data set: Activity against CX-1 colon xenograft. The data set is classed as in vivo. Here is the method: In addition, the compound 3,4-dihydroxybenzenehydroxamic acid was active against CX-1 colon xenograft using the following protocol:
0% tumor inhibition at 800 mg/kg dose level every fourth day,
3,4,5-trihydroxybenzohydroxamic acid gave the following results against the same tumor using the same protocol.

A further data set has as its system colon 38 tumor. Kind of data set: Inhibition of growth of colon tumor C8 (colon 38). The data set is classed as in vivo, mice.
Excerpt: as §1

Data set [7] has as its system L-1210 Leukemia. The data set is classed as in vivo, mice. To be noted: once or twice daily for 9-10 days.
Procedure: (§3) All compounds were administered once or twice daily for 9-10 days starting 24 hours after inoculation with the tumor.
Another data set has as its system CD8F mammary tumor. Kind of data set: Inhibition of growth of CD8F mammary tumor. The format is in vivo.
Excerpt: as §1

For the next data set, the system named is CA-755 adenocarcinoma. Kind of data set: Activity vs. CA-755 adenocarcinoma (Table 7). The data set is classed as in vivo, mice. To be noted: once or twice daily for 9-10 days.
A further data set has as its target T1, ribonucleotide reductase (Rattus norvegicus, UniProt Q4KLN6).
T1 construct: partially purified from Novikoff hepatoma; from tissue; host or cells: Novikoff hepatoma (rat tumour), partially purified enzyme
T1 sequence (Q4KLN6 1-390): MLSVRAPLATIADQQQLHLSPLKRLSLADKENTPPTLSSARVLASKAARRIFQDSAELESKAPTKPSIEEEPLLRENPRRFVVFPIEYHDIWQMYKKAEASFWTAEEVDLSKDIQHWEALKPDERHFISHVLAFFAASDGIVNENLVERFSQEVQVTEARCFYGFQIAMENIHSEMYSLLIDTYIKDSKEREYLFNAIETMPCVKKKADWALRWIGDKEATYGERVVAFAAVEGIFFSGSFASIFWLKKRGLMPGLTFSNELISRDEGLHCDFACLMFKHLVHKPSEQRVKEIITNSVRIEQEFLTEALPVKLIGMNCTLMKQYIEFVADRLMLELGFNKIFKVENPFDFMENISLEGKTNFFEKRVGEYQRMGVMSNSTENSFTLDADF
As to the kind of experiment: Inhibition of ribonucleotide reductase (conversion of CDP to dCDP), enzyme partially purified from Novikoff hepatoma. The format is biochemical.
Excerpt: as §2
In the above determination of ID50 's in Table 3, ribonucleotide reductase is partially purified from Novikoff hepatoma by a procedure similar to that set forth by Elford et al. J. Biol. Chem. 245, 5228 (1970). The activity of the enzyme was measured by a slightly modified assay procedure originally developed by Reichard et al. id, 236, 1150 […]. This procedure measures the conversion of CDP to dCDP. The assay mixture (0.34 ml.) contains 3 μCi of [^3 H] CDP (specific activity […]), 3.3 μmole ATP, 5.9 μmoles magnesium chloride, 8.8 μmoles Hepes buffer at pH=7.5, 15 μmoles dithiothreitol and enzyme protein between 0.4 and 1.3 mg. Incubation was provided for forty minutes at 30° C. Ion exchange chromatography employing Dowex 50 (H^+) resin is used to separate the product from the substrate. The inhibitors were dissolved in water and a mixture of water and up to 1 % ethanol or 2% dimethylsulfoxide, neither one of which inhibited the enzyme at these concentrations. Each inhibitor was tested at a minimum of three concentrations and the active compounds reassayed at least one additional time. ID50 's in μmoles were estimated from graphs summarizing results for each compound.

The subject of data set [8] is L-1210 Leukemia. The data set is classed as in vivo, mice. On the procedure:
In a series of studies against L-1210 leukemia, in addition to those studies set forth in Table 2 and 4, 3,4-dihydroxybenzohydroxamic acid gave the following increases in survival times at the dose levels specified. Drug was administered daily for nine days.
Similar data for 3,4,5-trihydroxybenzohydroxamic acid are as follows: […]
This is another data set of the same source.

For a further data set, the system named is Lewis Lung. As to the kind of experiment: Activity vs. Lewis Lung (Table 5). The data set is classed as in vivo, mice. To be noted: once or twice daily for 9-10 days.

Each structure is given as a SMILES string. “And” between values parts separate entries of the source, which are not always exact repeats. Equal entries are not always repeated. Where two headings read alike, the source gives them in different places.

Procedure for CA-755 adenocarcinoma: as §3
Procedure for L-5563 lymphoma: as §3
Procedure for Lewis Lung: as §3
Procedure for P388 Leukemia: as §3

With `Nc1cccc(C(=O)NO)c1` [3-Aminobenzohydroxamic acid], the “inhibition of / selectivity against DNA synthesis (in words)” value in [1] is “completely inhibiting DNA synthesis”. In addition, the “depression of RNA and protein synthesis” value in [2] is given as 50%.

As for `O=C(NO)c1ccccc1O` [salicylhydroxamic acid], in data set [1], the “inhibition of / selectivity against DNA synthesis (in words)” value is listed as “selective inhibition of DNA synthesis”. The “inhibition of DNA synthesis (in words)” value in [3] (Gale 1966) is recorded as “selective inhibition of DNA synthesis”. Also, the “depression of RNA and protein synthesis (in words)” value in data set [3] (cells preincubated for up to two hours) was “only a slight depression of RNA and protein synthesis”.

Turning to `O=C(NO)c1ccccc1` [Benzohydroxamic acid], in data set [2], the “inhibition of RNA synthesis (in words)” value was “found to inhibit RNA synthesis”.

By % inhibition is commonly meant the drop in the measured response relative to a control, in per cent. A low value points to a response near the control. A word on the ILS: it is how much longer treated animals lived than controls. As a reminder, the inhibition is the percentage by which the read-out fell short of the control. Regarding `O=C(NO)c1ccc(O)c(O)c1` [3,4-dihydroxybenzohydroxamic acid], the “% increase in survival time” value in the data set with L-1210 Leukemia [4] (250 mg/kg) came out at 32%; with L-1210 Leukemia [4] (500 mg/kg), 70%; in the data set with L-1210 Leukemia [5] (100 mg/kg), 25%; in the data set with L-1210 Leukemia [5] (300 mg/kg), 56%; in the data set on L-1210 Leukemia [5] (453 mg/kg), 125%; with L-1210 Leukemia [5] (500 mg/kg), 84%. Also, the “% increase in survival time” value is 77% in the data set with L-1210 Leukemia [5] (543 mg/kg); 94% and 103% with L-1210 Leukemia [5] (600 mg/kg); 65% in the data set with L-1210 Leukemia [5] (643 mg/kg); 65% with L-1210 Leukemia [7] (225 mg/kg). The increase in survival in the data set on B16 melanoma (200 mg/kg) is 24-25%; with B16 melanoma (400 mg/kg), 41%. Moreover, the “% inhibition” value was 24% with L-5563 lymphoma; 16% in the data set on CA-755 adenocarcinoma (100 mg/kg); 25% and 36% in the data set with CA-755 adenocarcinoma (200 mg/kg); 52% with CA-755 adenocarcinoma (300 mg/kg). For the same compound, the ILS at 600 mg/kg in the data set on L1210 leukemia was 103 ± 15%. Moreover, the “% Prolongation” value is listed as 51% in the data set on P388 Leukemia (200 mg/kg) and 89% in the data set with P388 Leukemia (225 mg/kg). In addition, the inhibition is recorded as 0% in data set [6] (200 mg/kg); 26% in data set [6] (400 mg/kg); 27% in data set [6] (800 mg/kg); 12% in the data set on colon 38 tumor (50 mg/kg); 8% with colon 38 tumor (100 mg/kg); 15% with colon 38 tumor (200 mg/kg). Also, the results for the inhibition in the data set with colon 38 tumor (400 mg/kg), in the data set on CD8F mammary tumor (300 mg/kg) and in the data set with CD8F mammary tumor (600 mg/kg) were 52%, 52% and 11%, respectively. Besides, the tumor inhibition stood at 48% with CX-1 colon xenograft (200 mg/kg every fourth day), 14% in the data set on CX-1 colon xenograft (400 mg/kg every fourth day) and 0% in the data set with CX-1 colon xenograft (800 mg/kg every fourth day). Also, in the data set on CX-1 colon xenograft (every fourth day), the “activity against CX-1 colon xenograft (in words)” value is recorded as “active”. In the data set with L-1210 Leukemia [7] (200 mg/kg), this compound came in with a survivors of 4 survivors. In addition, the “toxic (in column % inhibition)” value in the data set with CA-755 adenocarcinoma (300 mg/kg) is on record as “toxic”. Further, the IC50 on ribonucleotide reductase (CDP to dCDP, 40 min at 30° C, pH 7.5, enzyme from Novikoff hepatoma, read-out: ID50 (inhibitory dose which inhibits ribonucleotide reductase by 50%)) was determined as 30 µM. Besides, the “Inhibitory Potency for ribonucleotide reductase” value on ribonucleotide reductase (relative to hydroxyurea, given an arbitrary value of 1.0) is recorded as 17. For the same compound, the “% increase in survival” value turned out to be 15% in the data set with L-1210 Leukemia [8] (25 mg/kg daily for nine days); 25% in the data set with L-1210 Leukemia [8] (50 mg/kg daily for nine days); 37% in the data set with L-1210 Leukemia [8] (100 mg/kg daily for nine days); 21% with L-1210 Leukemia [8] (164 mg/kg daily for nine days); 52% in the data set on L-1210 Leukemia [8] (196 mg/kg daily for nine days); 67% in the data set with L-1210 Leukemia [8] (200 mg/kg daily for nine days). For the same compound, the “% increase in survival” value with L-1210 Leukemia [8] (235 mg/kg daily for nine days) was 39%; with L-1210 Leukemia [8] (245 mg/kg daily for nine days), 45% and 68%; in the data set with L-1210 Leukemia [8] (307 mg/kg daily for nine days), 67% and 76%; in the data set with L-1210 Leukemia [8] (336 mg/kg daily for nine days), 55%; in the data set with L-1210 Leukemia [8] (384 mg/kg daily for nine days), 62% and 85%; in the data set with L-1210 Leukemia [8] (400 mg/kg daily for nine days), 67%. Moreover, the “% increase in survival” value is 106% and 87% and 67% in the data set with L-1210 Leukemia [8] (480 mg/kg daily for nine days); 54% and 64% in the data set with L-1210 Leukemia [8] (600 mg/kg daily for nine days). For the same compound, the “% tumor inhibition” value with Lewis Lung (200 mg/kg) is given as 14%; in the data set on Lewis Lung (400 mg/kg), 31-58%.
